Data set [1] deals with Wnt transcriptional activity (TCF reporter) in U2OS cells. Description: TCF-Luciferase/TA-Renilla Wnt reporter assay in U2OS. Format: cell-based, human. As to conditions: 24 h, concentration dependent. An excerpt: (§1) The generation of TCF-Luciferase and TA-Renilla reporter plasmids as well as IC50 determination and calculation was reported previously. Human AXIN1 and WNT3A cDNAs were purchased from Origene as “transfection ready” plasmids. Dominant negative TCF4 cDNA was purchased from Upstate. Luciferase reporter of the nucleolin promoter (pNucL14) and FLAG-c-Myc expressing vector were from B. Amati. Luciferase reporter of the Hes5 promoter and Notch1-IC expressing vector were from I. Screpanti. Lentiviral vectors for inducible dominant negative TCF4 (rLV-EF1-tTS, rLV-EF1-rtTA and rLV-TRE-CMV-HA-TCF4DN) were purchased from Vectalys.
(§2) Transfections were carried out using Lipofectamine 2000 (Invitrogen) according to the manufacturer’s instructions. Lentiviral expression of TCF-Luc, TA-Renilla, and the inducible dominant negative TCF4, were carried out following Vectalys instructions. For reporter assays, luciferase activities were performed as described previously.
(In general: In a reporter assay the amount or activity of a reporter protein is the signal.)

Data set [2] relates to Wnt transcriptional activity in HT-1080 cells. Put plainly: TCF Wnt reporter assay in HT-1080. Format: cell-based, human. As to conditions: HT-1080, data not shown.
Description: as §1, §2

The test system of data set [3] is Axin1, TNKS1/2, c-Myc protein in U2OS cells. The protocol:
Total, nuclear and cytosolic cells lysates were prepared as described previously. Commercial antibodies used in this study include anti-Axin1, anti-β-catenin, anti-P-β−catenin Ser33/Ser37/Thr41 and anti-HA from Cell Signaling Technologies, anti-p21 (Santa Cruz), anti-tankyrases (Abcam), anti-Tubulin and anti-c-Myc from Calbiochem, anti-GAPDH and anti-β-actin (Sigma). For co-localization experiments, U2OS cells were plated directly on coverslips coated with Fibronectin (Invitrogen). After transfections and incubation treatment of 24 h, cells were washed once with 1X PBS and then fixed with 4% paraformaldehyde for 15 min. After three washes in PBS, cells were permeabilized with 0.1% Triton X-100 for 10 min and washed three times with TBS (Bio-Rad). […] After 24 h, cells were washed three times with TBS and incubated for 1 h with the following secondary antibody Alexa Fluor 546-conjugated goat anti-rabbit IgG (Invitrogen, 1∶1000). Finally, coverslips were mounted onto glass slides using Prolong Gold Antifade reagent with DAPI (Invitrogen). Cells were examined under laser confocal fluorescence microscope with plan-apochromate 40x and 63x/1.4 oil-immersion objective (LSM 510 Meta, Axiovert 200, Zeiss). Co-localization experiments were performed in triplicate, and data/images presented are the average of at least 10 random fields for each independent experiment.

The subject of the next data set is HT-1080 cells. Description: Tube formation assay, HT-1080. It counts as cell-based, human. The conditions noted are these: HT-1080, 24 hours exposure, vs DMSO. As to the method:
Soft agar assay and analysis was carried out as previously described. For scratch assay, confluent monolayer of U2OS and HT-1080 cells were subjected to scratch using a sterile pipette tip. Wounded monolayers were washed to remove debris and incubated with SEN461 at different concentrations for 20 hours. After the incubation period, images were taken under an Axiovert 200M (Zeiss) microscope equipped with a CCD camera, and the gap width was measured using MetaMorph 6.3 software (Universal Imaging Corp.) to calculate the area covered by cells (pixels unit). The tube formation assay was performed using growth factor-reduced Matrigel from BD (BD Biosciences; San Jose, CA, USA). Matrigel was thawed overnight at 4°C and was diluted (1∶1) with phenol red-free DMEM without serum. 100 µl of the diluted matrigel was used to coat the wells of a 96 well plate and was allowed to polymerize for 2 hours at 37°C. […] The tube formation was monitored under a phase contrast microscope (Axiovert 200, Zeiss) and imaged using MetaMorph system (Universal Imaging Corp).

In data set [4] the test system is Notch signaling in HEK293 cells. Put plainly: Hes5 promoter luciferase reporter with Notch1-IC, HEK293. It counts as cell-based. As to conditions: HEK293, Notch1-IC stimulation, data not shown.
Description: as §1, §2

A short description of data set [5]: Plasma and tumor exposure in HT-1080 xenograft mice. Format: in vivo, female Crl:CD-1 nude mice. The conditions noted are these: 30 mg/kg BID PO. As to the method:
Female athymic nude mice (6 weeks old, Crl:CD-1 nude mice) were obtained from Charles River Italia (Calco, Italy). HT-1080 cells (6×10^∧6 cells) were resuspended in 200 µl of PBS 1X and injected subcutaneously in the right flank of the mice. Body weight and tumor measurements (using a digital caliper) were performed twice a week. Randomization was performed on day 12 after cell injection by comparing tumor mass and treatments started on day 13 when tumors reached a median size of 246 mm^3 (range = 230–268 mm^3). SEN461 was formulated in 0.5% w/v Methocel in MilliQ water and administered PO by oral gavage twice a day at 30 mg/kg for seven consecutive days in a total of 15 animals (n = 5 for each time point). Control animals (n = 5) were administered with the vehicle for the same time period. On treatment day 19, the mice were euthanized under inhalant anesthesia with isoflurane and tumor and blood samples were collected at three different time points (1–4–8 h, n = 5 animals for each time point) after last treatment and subjected to gene expression analysis and compound quantification. All mice were maintained in a conventional-specific-pathogen-free facility according to the NIH guidelines using an approved Animal Care and Use Committee protocol. During all the experimental time period, mice were housed (5 animals/cage) in individually ventilated solid floor plastic cages (Sealsafe Plus GR500, Tecniplast-Gazzada (VA) – Italy) using as bedding the Sawdust SCOBIS UNO by MUCEDOLA S.r.l (via Galileo Galilei 4, 20019 Settimo Milanese, Milano, Italy). Cages were maintained at a temperature of 20–24°C and humidity of 40–70% (Siemens Desigo Apparatus ver. 4.1) with 70 air changes/hour in the cage (10–15 air changes/hour in the room). Animals were subjected to a 12-hour light/12-hour dark cycle and have free access to a standard pelleted commercial laboratory diet (Certified Rodent irradiated 4RF21– Mucedola, Italy) and to municipal tap water, purified by reverse osmosis and autoclaved. The study was conducted in compliance with Decreto Legislativo January 27, 1992, N. 116, Gazzetta Ufficiale N. 40 February 18, 1992, (Directive N. […]) concerning protection of animals used for scientific purposes. The project was authorized by the Italian Institute of Health (48/2009/B). The experimental protocol was rewieved and approved by the Internal Ethical Committee.

SMILES strings stand for the structures. Several values for one entry are separate records, joined by “and”; a condition that tells them apart may be missing. Equal entries are not always repeated.

Consider `COCC(=O)N1CCN(C(=O)C2CCC(Cn3c(=O)c4cc(OC)ccc4n(C)c3=O)CC2)CC1` (stereo not shown) [SEN461], for which, in data set [1], the “TCF-dependent reporter activity (TCF-Luciferase/TA-Renilla)” value is “reduced TCF-dependent reporter activity”. Moreover, in data set [2], the “Wnt transcriptional modulation (TCF reporter)” value was “did not find any Wnt transcriptional modulation”. The “tankyrases (TNKS1 and TNKS2) protein level” value in data set [3] (only at the highest concentration) is given as “very slight stabilization”. The c-Myc protein level result in data set [3] (overnight) is given as “No effect”. Further, the Axin1 protein level result in data set [3] (overnight, cytoplasmic lysates) is “concentration-dependent stabilization”. In addition, in the data set with HT-1080 cells, the tubule-formation activity entry is “did not produce any change”. Moreover, in data set [4], the “Notch signaling (Hes5 promoter luciferase)” value is on record as “did not detect any transcriptional effects”. The Ctumor/plasma in data set [5] (day 7, 1 h) was determined as 0.23; in data set [5] (day 7, 4 h), 0.23; in data set [5] (day 7, 8 h), 0.17. The Cplasma is 6.6 µmol/L and 6.62 ± 2.08 µmol/L in data set [5] (day 7, 1 h after last dose); 2.57 ± 0.08 µmol/L in data set [5] (day 7, 4 h after last dose); 0.57 ± 0.19 µmol/L in data set [5] (day 7, 8 h after last dose). Besides, the Ctumor in data set [5] (day 7, 1 h after last dose) is 1.5 µmol/L and 1.54 ± 0.35 µmol/L; in data set [5] (day 7, 4 h after last dose) it was 0.58 ± 0.08 µmol/L; in data set [5] (day 7, 8 h after last dose), 0.10 ± 0.02 µmol/L.
